This note sets out measurements from patent US20100168112A1, “2-Substituted and 4-substituted aryl nitrone compounds” (RENOVIS, INC., priority 2004, published 2010).

Where two headings read alike, the source gives them in different places.

A short description of data set [1]: Pharmacokinetic evaluation following intravenous and oral administration in rats. The format is in vivo. The conditions noted are these: male, Sprague-Dawley; for Cmax / Tmax / bioavailability: 5 mg/kg; for Cmax: rat plasma; for Cmax / Tmax: oral gavage, 2 mg/mL at 2.5 mL/kg; for clearance / Vd / Tmax / bioavailability / half-life: plasma, rat; for clearance / Vd / half-life: 1 mg/kg; for clearance / Vd: intravenous administration, 1 mg/mL at 1.0 mL/kg; for clearance: read-out: CI (clearance) (converted); for Vd: read-out: Vd (volume of distribution); for bioavailability: po 2 mg/mL at 2.5 mL/kg vs iv 1 mg/mL at 1.0 mL/kg, dose-normalized, read-out: F (%) oral bioavailability; for half-life: intravenous, read-out: T1/2 elimination half life (converted). The procedure, abridged:
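Male Sprague-Dawley rats, fasted, dosed iv (1 mg/mL formulation, 1.0 mL/kg, jugular or tail vein) or by oral gavage (2 mg/mL suspension, 2.5 mL/kg). Plasma sampled from 2 min to 480 min, some to 24 h, and quantified by LC-MS/MS (MRM). Parameters from noncompartmental analysis.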

A short description of data set [2]: Plasma protein binding (equilibrium dialysis), human plasma. The conditions noted are these: 1 μg/mL in plasma, dialysis vs phosphate buffer pH 7.4 overnight at 37° C., read-out: Plasma Protein Binding % Bound Human (converted). In kind it is in vitro ADME. As to the method: (§1) Nitrone compounds of this invention were individually dissolved in DMSO to make a stock solution of 1 mg/mL. The compound was spiked into plasma to achieve a final concentration of 1 μg/mL. Spiked plasma and phosphate buffer (0.1M, pH 7.4), 200 μl each, were added to the opposite sides of the membrane in a 96-well equilibrium dialyzer. The dialyzer plate was then covered and equilibrated overnight at 37° C. on an orbital shaker. Aliquots were taken from the plasma and the buffer compartments and prepared by adding blank plasma to samples from the buffer compartments and drug-free phosphate buffer to samples from the plasma compartments to eliminate the matrix effects. The samples were extracted using protein precipitation procedure by adding CH3CN. The samples were analyzed using a LC/MS/MS method. The percentage of free and bound nitrone compound were calculated according to the following formula:
(§2) %Free=[Free Drug/Total Drug]*100=[(Peak Area)buffer/(Peak Area)serum]*100%Bound=100%Free
In general terms: In equilibrium dialysis only unbound substance equilibrates across the membrane.

Data set [3] is described as follows: DPPH free radical-scavenging/antioxidant assay. In kind it is biochemical. The conditions noted are these: 50 μM DPPH in 80% methanol; 24 h time point; read-out: EC50 (concentration at which a compound reduces by 50% the peak absorbance of DPPH at 520 nm). The procedure, abridged:
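Compounds diluted 100-fold from DMSO stocks into 50 μM DPPH in 80% methanol; absorbance at 520 nm followed kinetically to steady state, with the 24 h reading used. EC50 interpolated from OD520 versus concentration; Trolox, BHA, PBN and S-PBN as positive controls, DMSO as vehicle.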
A general note: The DPPH test is a chemical assay of radical scavenging.

Data set [4] is described as follows: Plasma protein binding (equilibrium dialysis), rat plasma. In kind it is in vitro ADME. The settings on record: 1 μg/mL in plasma, dialysis vs phosphate buffer pH 7.4 overnight at 37° C., read-out: Plasma Protein Binding % Bound Rat (converted). On the procedure: as §1, §2
Data set [5] in a line: Solubility measurement at pH 7.4. In kind it is physicochemical. The settings on record: aqueous buffer, thermodynamic from solid, phosphate buffer pH 7.4, room temperature. As to the method: Nitrone compounds (>3 mg) of this invention were mixed with a phosphate buffer at pH 7.4 to make a >0.3 mg/mL mixture. The mixture was vortexed for more than 2 hours and equilibrated over 12 hours at room temperature. The equilibrated mixture was used to saturate a 0.45 μm Tuffryn syringe filter. After saturating, the remainder of the mixture was filtered through the saturated filter. The filtrate was diluted by 1, 10, 100, and 1000 fold and analyzed using a LC/MS/MS method with standard curve ranging from 1 to 1000 ng/mL.

The nature of data set [6]: Microsomal stability in rat liver microsomes. The conditions noted are these: rat liver microsomes 0.5 mg/ml, 1 mM NADPH, ~500 ng/ml compound, 37° C. The format is in vitro ADME. As to the method: Frozen Sprague-Dawley rat liver microsomes (RLM) were thawed on ice and gently mixed before use. The final reaction mixture consisted of a nitrone compound of this invention (at ˜500 ng/ml), 1 mM NADPH, and 0.5 mg/ml of RLM protein in 0.1 M PBS (pH7.4), with organic solvent concentration not exceeding 1% (v/v). Per set of incubations, a positive control compound was included. The mixture was first pre-incubated 3 to 5 minutes at 37° C. without NADPH, and the reaction was then initialized by the addition of NADPH and incubated at 37° C. for up to 30 minutes. An aliquot of the reaction mixture was sampled at the initiation of the reaction and at designated time after reaction started. The drawn samples were quenched with acetonitrile, diluted with mobile phase to ensure the detection of test article in the linear range, and analyzed by LC/MS/MS. Half-life or percentage of remaining nitrone compound was calculated using standard methods. A similar method, or a slight variation of it, was used to test the stability of nitrones in human liver microsomes (HLM).

Setting [7] is: read-out: Solubility @ pH 7.4 (μg/mL).

As to `CC(C)(C)/[N+]([O-])=C/c1ccc(S(=O)(=O)C2CCCC2)cc1` [Compound 71, N-tert-Butyl-C-[4-(cyclopentanesulfonyl)phenyl]nitrone], in data set [1], the Cmax (as a rule, the highest concentration seen after dosing) is 108 ng/mL; the clearance is 31 mL/min/kg; the Vd is 1.66 L/kg; the Tmax (in general, the time from dosing to the highest level) is 16.8 min. In addition, in data set [1], the bioavailability – broadly, dose-corrected exposure relative to a reference, in per cent – was found to be 5.87% and the half-life was 45.6 min. In data set [2], the fraction unbound at 1 μg/mL is 0.544. In data set [3], the EC50 was above 1000 µM. For the same molecule, in data set [4], the fraction unbound at 1 μg/mL is 0.484.
With `CC(C)(C)/[N+]([O-])=C/c1ccccc1S(=O)(=O)N1CCCCC1` [Compound 33, N-tert-Butyl-C-[2-(piperidine-1-sulfonyl)phenyl]nitrone], in data set [1], the Cmax was 10 ng/mL, the clearance was 36.2 mL/min/kg, the Vd is 1.66 L/kg and the Tmax turned out to be 4.98 min. Moreover, in data set [1], the bioavailability came to 0.1% and the half-life is 32.4 min. For the same molecule, the solubility in data set [5] (read-out: Solubility @ pH 7.4) is above 3330 µM. Also, the solubility in data set [5] (setting [7]) is above 1080 µg/mL. For the same molecule, the EC50 in data set [3] was above 1000 µM. Besides, the “% of Nitrone Remaining at 30 min (Rat)” value in data set [6] is 0.3%.
On to `CC(C)(C)/[N+]([O-])=C/c1ccc(C(N)=O)cc1` [Compound 19], for which, in data set [1], the concentration peaked (Cmax) at 3000 ng/mL, the clearance is 2.33 mL/min/kg, the Vd was 0.74 L/kg and the Tmax was found to be 19.8 min. In data set [1], the bioavailability worked out at 39.5% and the half-life is 218 min. The solubility in data set [5] (read-out: Solubility @ pH 7.4) was 14200 µM. In addition, in data set [5] (setting [7]), the solubility came to 3130 µg/mL. In addition, the “% of Nitrone Remaining at 30 min (Rat)” value in data set [6] was 100%.
Consider `CCS(=O)(=O)c1ccccc1/C=[N+](\[O-])C(C)(C)C` [Compound 68, N-tert-Butyl-C-(2-ethanesulfonylphenyl)nitrone], for which, in data set [1], the peak level (Cmax) was 2110 ng/mL, the clearance was 7.83 mL/min/kg, the Vd was found to be 0.63 L/kg and the Tmax worked out at 59.4 min. For the same molecule, in data set [1], the bioavailability is 36.4% and the half-life was 55.8 min. Besides, the fraction unbound at 1 μg/mL in data set [2] is 0.781. Further, in data set [3], the EC50 is 500 to 1000 µM. The fraction unbound at 1 μg/mL in data set [4] was 0.783.
On to `CCN(CC)S(=O)(=O)c1ccccc1/C=[N+](\[O-])Cc1ccccc1` [Compound 32, N-Benzyl-C-(2-diethylsulfamoylphenyl)nitrone], for which, in data set [3], the EC50 was above 1000 µM. Also, the “% of Nitrone Remaining at 30 min (Rat)” value in data set [6] is given as 0%.
As for `CC(C)(C)/[N+]([O-])=C/c1ccc(C(F)(F)F)cc1S(C)(=O)=O` [Compound 72, N-tert-Butyl-C-[2-methanesulfonyl-4-trifluoromethylphenyl]nitrone], in data set [1], the highest level (Cmax) was 1520 ng/mL, the clearance is 11 mL/min/kg, the Vd came to 2.69 L/kg and the Tmax was determined as 19.2 min. Also, in data set [1], the bioavailability is 59.8% and the half-life is 169 min. Further, in data set [2], the fraction unbound at 1 μg/mL is 0.367. For the same molecule, the EC50 in data set [3] is above 1000 µM. In addition, in data set [4], the fraction unbound at 1 μg/mL was 0.319.
`CC(C)(C)NC(=O)c1ccc(/C=[N+](\[O-])C(C)(C)C)cc1` [Compound 18, N-(tert-Butyl)-C-[4-(N-tert-butylcarbamoyl)phenyl]nitrone]: in data set [1], the highest level (Cmax) was 2240 ng/mL, the clearance is 21.5 mL/min/kg, the Vd is 0.62 L/kg and the Tmax amounted to 25.2 min. In data set [1], the bioavailability came out at 75.1% and the half-life is 19.8 min. Moreover, the solubility in data set [5] (read-out: Solubility @ pH 7.4) came to 1360 µM. In addition, the solubility in data set [5] (setting [7]) stood at 376 µg/mL. Also, the “% of Nitrone Remaining at 30 min (Rat)” value in data set [6] worked out at 100%.
`O=S(=O)(c1ccccc1/C=[N+](\[O-])Cc1ccccc1)N1CCCCC1` [Compound 35, N-Benzyl-C-[2-(piperidine-1-sulfonyl)phenyl]nitrone]: the solubility in data set [5] (read-out: Solubility @ pH 7.4) came out at 107 µM; in data set [5] (setting [7]), 38.4 µg/mL. Further, the EC50 in data set [3] was above 1000 µM. In addition, the “% of Nitrone Remaining at 30 min (Rat)” value in data set [6] was found to be 0%.
In the case of `CCN(CC)S(=O)(=O)c1ccccc1/C=[N+](\[O-])C1CCCCC1` [Compound 31, N-Cyclohexyl-C-(2-diethylsulfamoylphenyl)nitrone], the results for the solubility in data set [5] (read-out: Solubility @ pH 7.4) and in data set [5] (setting [7]) were 2890 µM and 978 µg/mL, respectively. For the same molecule, in data set [3], the EC50 was above 1000 µM. For the same molecule, the “% of Nitrone Remaining at 30 min (Rat)” value in data set [6] amounted to 0%.
In the case of `CC(C)S(=O)(=O)c1ccc(/C=[N+](\[O-])C(C)(C)C)cc1` [Compound 70, N-tert-Butyl-C-[4-(2-propanesulfonyl)phenyl]nitrone], in data set [1], the Cmax was 1270 ng/mL, the clearance is 20 mL/min/kg, the Vd came out at 1.07 L/kg and the Tmax was 29.4 min. Besides, in data set [1], the bioavailability was 52.2% and the half-life is 37.2 min. Further, in data set [2], the fraction unbound at 1 μg/mL is 0.796. Moreover, the EC50 in data set [3] was above 1000 µM. The fraction unbound at 1 μg/mL in data set [4] was 0.718.
As to `CC(C)S(=O)(=O)c1ccccc1/C=[N+](\[O-])C(C)(C)C` [Compound 69, N-tert-Butyl-C-[2-(2-propanesulfonyl)phenyl]nitrone], in data set [1], the highest level (Cmax) was 1840 ng/mL, the clearance was 14 mL/min/kg, the Vd worked out at 0.76 L/kg and the Tmax came to 11.4 min. Also, in data set [1], the bioavailability was 54.9% and the half-life is 38.4 min. In data set [2], the fraction unbound at 1 μg/mL is 0.532. Also, the EC50 in data set [3] is above 1000 µM. The fraction unbound at 1 μg/mL in data set [4] is 0.755.
On to `CCS(=O)(=O)c1ccc(/C=[N+](\[O-])C(C)(C)C)cc1` [Compound 67, N-tert-Butyl-C-(4-ethanesulfonylphenyl)nitrone], for which, in data set [1], the Cmax was 4760 ng/mL, the clearance was 1.17 mL/min/kg, the Vd was 0.42 L/kg and the Tmax amounted to 79.8 min. For the same molecule, in data set [1], the bioavailability was 46.4% and the half-life is 266 min. Further, the fraction unbound at 1 μg/mL in data set [2] was 0.864. In addition, in data set [3], the EC50 was above 1000 µM. The fraction unbound at 1 μg/mL in data set [4] is 0.78.
On to `O=S(=O)(c1ccccc1/C=[N+](\[O-])C1CCCCC1)N1CCCCC1` [Compound 34, N-Cyclohexyl-C-[2-(piperidine-1-sulfonyl)phenyl]nitrone], for which the solubility stood at 1420 µM in data set [5] (read-out: Solubility @ pH 7.4) and 500 µg/mL in data set [5] (setting [7]). Besides, the EC50 in data set [3] was above 1000 µM. Moreover, in data set [6], the “% of Nitrone Remaining at 30 min (Rat)” value worked out at 0%.
In the case of `CC(C)(C)/[N+]([O-])=C/c1ccc(C(=O)O)cc1` [Compound 13, N-tert-Butyl-C-(4-carboxy-phenyl)nitrone], in data set [1], the Cmax was 5580 ng/mL, the clearance was 12.8 mL/min/kg, the Vd was 0.41 L/kg and the Tmax was determined as 19.8 min. Moreover, in data set [1], the bioavailability was found to be 64.7% and the half-life was 22.2 min. Moreover, in data set [5] (read-out: Solubility @ pH 7.4), the solubility was found to be 9040 µM. In addition, in data set [5] (setting [7]), the solubility amounted to 2000 µg/mL. Also, the “% of Nitrone Remaining at 30 min (Rat)” value in data set [6] was 100%.
